Reference: publication PMC5428013, “Peptide-Au Clusters Induced Tumor Cells Apoptosis via Targeting Glutathione Peroxidase-1: The Molecular Dynamics Assisted Experimental Studies” (Scientific Reports, 2017)

How the values were obtained:
Assay type in all cases: cell-based, human
A549 cells = experiment: Intracellular ROS level by flow cytometry (CM-H2DCFDA); conditions: 48 h
Procedure: For CLSM observation, cells were prior cultured on glass-bottom dishes. Au25P1_9 was added to culture medium and the final Au dose was 800 µM. After 48 h. the cells were washed three times with PBS and incubated with 5 µM CM-H2DCFDA, at 37 °C under darkness for 30 min. Before CLSM observation, the culture medium was discarded and the cells were washed three times with PBS, supplemented with fresh culture medium. Finally, ROS in cells were highlighted by green fluorescence emission of CM-H2DCFDA, imaged under Nikon Ti-e microscope with excitation at wavelengths of 488 nm. For flow cytometry analysis, cells were prior seeded on 6-well plate (at the density of 1 × 10^5 cells/well) for 24 h. Then the medium was discarded and fresh culture medium containing Au25P1_9 with Au dose at 800 μM was added. For another 48 h incubation, the cells were washed thrice with PBS, and incubated with 5 µM CM-H2DCFDA at 37 °C under darkness for 30 min. After washing with PBS, the cells were collected and suspended in ice cold PBS. Fluorescence intensity of 20,000 events was recorded using an Accuri C6 flow cytometer and the level of intracellular ROS was analyzed by Cflow software.

HCT-8 cells = experiment: Cell viability assay (CCK-8), HCT-8; conditions: HCT-8, same condition as A549
Procedure: Briefly, cells were prior cultured on 96-well plates (at the density of 5 × 10^3 cells/well) for 24 h to allow cells attachment. The cells were treated with different doses of these free peptides (0, 1, 4, 16, 64, 256, 1024 µM) and peptide-Au clusters (0, 50, 100, 200, 400, 800 µM in Au dose) for 48 h, respectively. The cells were washed three times with PBS and then incubated with fresh growth medium containing 10% (v/v) CCK-8 reagent for 1 h at 37 °C for cell viability assay. The absorbance was measured at 450 nm by using a microplate reader (SpectraMAX M2, Sunnyvale, California). Cell viability of untreated cells was set as 100%, and that of treated cells were expressed as a relative percentage of untreated cells. All data were shown as mean percentages ± standard deviation from three independent experiments.

PARP = experiment: Cleaved PARP level, western blotting; conditions: serial Au doses (0, 100, 200, 400, 800 μM), 48 h
Procedure: The expression of GPx-1, caspase-3 and PARP from Au25P1_9 treated A549 cells were analyzed by western blotting. A549 cells were prior seeded on 6-well plate (at the density of 1 × 10^5 cells/well) for 24 h. Then the medium was discarded and fresh culture medium with Au25P1_9 at different doses was added to make cells exposed to final Au doses at 0, 100, 200, 400 and 800 μM, respectively. After another 48 h incubation, the cells were harvested and lysed by cell lysis buffer for Western and IP (containing 20 mM Tris-HCl, pH7.5, 150 mM NaCl, 1% Triton X-100, sodium pyrophosphate, β-glycerophosphate, EDTA, Na3VO4 and leupeptin), protease inhibitor cocktail tablet and 1 mM PMSF for 15 min on a shaker at 4 °C. The lysed cells were collected and centrifuged for 15 min at 12,000 g to get total protein of cells. The protein dose of each sample was prior quantified, and then loading buffer was added. After boiling for 5 min, the protein samples with equal amount were separated on 12% SDS polyacrylamide gel electrophoresis and then transferred onto the polyvinylidene difluoride (PVDF) membrane. Membrane was blocked by 5% nonfat dried milk prepared in tris(hydroxymethyl)amin omethane-NaCl-Tween 20 (TBST) at room temperature for 1 h, and then incubated with primary antibodies specific to β-actin, Caspase-3, PARP and GPx-1 at 4 °C overnight, respectively. […]

caspase-3 = experiment: Caspase-3 activity assay (Nucview488, CLSM); conditions: 800 µM Au, 48 h, 5 µM Nucview488 substrate
Procedure: A549 cells were seeded on glass-bottom dishes for 24 h, and the Au25P1_9 was added to culture medium and final Au dose was 800 µM. A549 cells were next exposed to Au25P1_9 for 48 h. Then the cells were washed three times with PBS and incubated with 5 µM Nucview488 caspase-3 substrate (which can be cleaved by caspase-3 and release the DNA dye to stain DNA with bright green fluorescence during apoptosis) at room temperature for 30 min. Finally, cells were washed with PBS and observed by CLSM with excitation at wavelengths of 488 nm.

CCYGGPEEEEEVG [Au25P1_9, Au25 cluster coated by nine P1 peptides (…)]
FL1-H fluorescence intensity (ROS) (A549 cells; Au dose 800 µM, with CM-H2DCFDA, CM-H2DCFDA only control 20088, untreated 2674): 43464 | intracellular ROS level relative to control (A549 cells; Au dose of 800 μM, 5 µM CM-H2DCFDA, flow cytometry, 20,000 events): ~ 210% | change of cell viability (HCT-8 cells): almost negligible | cleaved PARP level (PARP): Au dose-dependent increase of cleaved caspases-3 and cleaved PARP levels | caspase-3 activation (caspase-3): strong Nucview488 emission
